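Grown in 96-well plates, cells were treated for 48 hours with each compound at five concentrations. Insufficient inhibition: endpoint recorded as highest concentration tested. TGI: concentration producing complete growth inhibition.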
What was measured:
Assay in all cases: NCI tumour cell line growth inhibition, 48 h
[1] = tested on: HS 578T breast
[2] = tested on: DU-145 prostate
[3] = tested on: OVCAR-5 ovarian
[4] = tested on: SK-MEL-5 melanoma
[5] = tested on: ACHN renal
[6] = tested on: SW-620 colon
[7] = tested on: SK-OV-3 ovarian
[8] = tested on: K-562 leukemia
[9] = tested on: MCF7 breast
[10] = tested on: SF-268 CNS
[11] = tested on: OVCAR-3 ovarian
[12] = tested on: SNB-19 CNS
[13] = tested on: MOLT-4 leukemia
[14] = tested on: MALME-3M melanoma
[15] = tested on: 786-0 renal
[16] = tested on: MDA-MB-435
[17] = tested on: M14 melanoma
[18] = tested on: NCI-H522 lung
[19] = tested on: SK-MEL-2 melanoma
[20] = tested on: NCI/ADR-RES ovarian
[21] = tested on: PC-3 prostate
[22] = tested on: UACC-62 melanoma
[23] = tested on: BT-549 breast
[24] = tested on: A498 renal
[25] = tested on: HCC-2998 colon
[26] = tested on: T-47D breast
[27] = tested on: NCI-H460 lung
[28] = tested on: UACC-257 melanoma
[29] = tested on: IGROV1 ovarian
[30] = tested on: HOP-62 NSCLC
[31] = tested on: KM12 colon
[32] = tested on: COLO 205 colon
[33] = tested on: SF-295 CNS
[34] = tested on: A549 NSCLC
[35] = tested on: EKVX NSCLC
[36] = tested on: HCT-116 colon
[37] = tested on: SN12C renal
[38] = tested on: RPMI-8226 leukemia
[39] = tested on: SR leukemia
[40] = tested on: OVCAR-4 ovarian
[41] = tested on: UO-31 renal
[42] = tested on: CAKI-1 renal
[43] = tested on: HCT-15 colon
[44] = tested on: LOX IMVI melanoma
[45] = tested on: HOP-92 NSCLC
[46] = tested on: TK-10 renal
[47] = tested on: RXF 393 renal
[48] = tested on: SNB-75 CNS
[49] = tested on: HT29 colon
[50] = tested on: MDA-MB-231 breast
[51] = tested on: SK-MEL-28 melanoma
[52] = tested on: NCI-H23 lung
[53] = tested on: U251 CNS
[54] = tested on: OVCAR-8 ovarian

CN(C)CCC=C1c2ccccc2C=Cc2ccccc21 showed a TGI [1] of 42.3 µM, a TGI [2] of 35.4 µM and a TGI [3] of 29.5 µM. The TGI [4] was 27.5 µM, the TGI [5] was 30.9 µM and the TGI [6] was 38.2 µM. For the same molecule, the TGI [7] was 31.4 µM, the TGI [8] was 56 µM and the TGI [9] was 29.9 µM. For the same molecule, the TGI [10] was 30.9 µM, the TGI [11] was 31.1 µM and the TGI [12] was 41.7 µM. For the same molecule, the TGI [13] was 42.6 µM, the TGI [14] was 31.9 µM and the TGI [15] was 30.5 µM. The TGI [16] was 36.5 µM, the TGI [17] was 32.6 µM and the TGI [18] was 37 µM. The TGI [19] was 32.3 µM, the TGI [20] was 31.2 µM and the TGI [21] was 35 µM. The TGI [22] was 30.3 µM, the TGI [23] was 31.8 µM and the TGI [24] was 29.4 µM. For the same molecule, the TGI [25] was 18.5 µM, the TGI [26] was 44.8 µM and the TGI [27] was 28.9 µM. For the same molecule, the TGI [28] was 28.3 µM, the TGI [29] was 31.5 µM and the TGI [30] was 33 µM. It also gave a TGI [31] of 35.3 µM, a TGI [32] of 29.3 µM and a TGI [33] of 32.8 µM. The TGI [34] was 39.6 µM, the TGI [35] was 28.7 µM and the TGI [36] was 30.7 µM. The TGI [37] was 32.5 µM, the TGI [38] was 52.3 µM and the TGI [39] was 42.8 µM. The TGI [40] was 68.1 µM, the TGI [41] was 32 µM and the TGI [42] was 35.7 µM. It also gave a TGI [43] of 33.1 µM, a TGI [44] of 31.6 µM and a TGI [45] of 34.9 µM. The TGI [46] was 29.8 µM, the TGI [47] was 34.3 µM and the TGI [48] was 31.1 µM. It also gave a TGI [49] of 19.2 µM, a TGI [50] of 31.5 µM and a TGI [51] of 31.3 µM. It also gave a TGI [52] of 35.1 µM, a TGI [53] of 29.8 µM and a TGI [54] of 30.5 µM.
